Assay results taken from ChEMBL document CHEMBL1201862, “PubChem BioAssay data set” (2004).
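Dose response: 5 concentrations. Exposure: 48 h. Format: 96-well plates. Endpoint: linear interpolation; highest concentration if not reached. At the GI50, growth is halved.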 Active and inactive are the calls of the source. No stated cut-off is given here; in the data, active = GI50 up to about 1.1 µM and inactive = higher.

How the values were obtained:
Experiment in all cases: DTP human tumour cell line panel, 48 h
SR = system: SR
KM12 = system: KM12
EKVX = system: EKVX
SF-268 = system: SF-268
M14 = system: M14
K562 = system: K562
NCI/ADR-RES = system: NCI/ADR-RES
ACHN = system: ACHN
Hs-578T = system: Hs-578T
HOP-92 = system: HOP-92
TK-10 = system: TK-10
PC-3 = system: PC-3
OVCAR-8 = system: OVCAR-8
UO-31 = system: UO-31
RXF 393 = system: RXF 393
SN12C = system: SN12C
SK-MEL-2 = system: SK-MEL-2
RPMI-8226 = system: RPMI-8226
COLO 205 = system: COLO 205
LOX IMVI = system: LOX IMVI

Row | Structure (SMILES) | GI50 (SR) | GI50 (KM12) | GI50 (EKVX) | GI50 (SF-268) | GI50 (M14) | GI50 (K562) | GI50 (NCI/ADR-RES) | GI50 (ACHN) | GI50 (Hs-578T) | GI50 (HOP-92) | GI50 (TK-10) | GI50 (PC-3) | GI50 (OVCAR-8) | GI50 (UO-31) | GI50 (RXF 393) | GI50 (SN12C) | GI50 (SK-MEL-2) | GI50 (RPMI-8226) | GI50 (COLO 205) | GI50 (LOX IMVI)
1 | CN(C)c1ccc(/C=C/c2ccc3ccccc3[n+]2C)cc1 | 1.77 µM (inactive) | 3.42 µM (inactive) | 1.62 µM (inactive) | 4.45 µM (inactive) | 4.12 µM (inactive) | 0.891 µM (active) | > 100 µM (inactive) | 5.62 µM (inactive) | 20.4 µM (inactive) | 1.99 µM (inactive) | 5.16 µM (inactive) | 1.57 µM (inactive) | 1.39 µM (inactive) | 2.07 µM (inactive) | 2.81 µM (inactive) | 2.96 µM (inactive) | 1.48 µM (inactive) | – | – | –
2 | O=C1OC(c2ccccc2)=N/C1=C/c1cccs1 | 70 µM (inactive) | 56 µM (inactive) | > 100 µM (inactive) | > 100 µM (inactive) | > 100 µM (inactive) | 30.4 µM (inactive) | 38.3 µM (inactive) | > 100 µM (inactive) | 87.1 µM (inactive) | > 100 µM (inactive) | > 100 µM (inactive) | > 100 µM (inactive) | 63.1 µM (inactive) | – | > 100 µM (inactive) | – | 49 µM (inactive) | 16.4 µM (inactive) | – | –
3 | N/C(=N\Nc1nc2cc([N+](=O)[O-])ccc2o1)c1ccccn1 | 0.013 µM (active) | 0.372 µM (active) | 0.0257 µM (active) | 0.0738 µM (active) | 0.144 µM (active) | 0.0673 µM (active) | 0.0404 µM (active) | 0.0802 µM (active) | 4.31 µM (inactive) | 0.242 µM (active) | 0.193 µM (active) | 0.122 µM (active) | 0.0474 µM (active) | – | 0.0622 µM (active) | 0.189 µM (active) | 0.167 µM (active) | 0.123 µM (active) | 0.0366 µM (active) | 0.071 µM (active)
4 | COC(=O)C(COC(C)=O)NC(=O)/C=C/c1ccc(O)c(OC(C)=O)c1 (centres undefined) | 5.81 µM (inactive) | 67.1 µM (inactive) | > 100 µM (inactive) | > 100 µM (inactive) | > 100 µM (inactive) | 44.6 µM (inactive) | 75.3 µM (inactive) | 74 µM (inactive) | > 100 µM (inactive) | 83.4 µM (inactive) | 77.4 µM (inactive) | 99.1 µM (inactive) | 58.1 µM (inactive) | 49.2 µM (inactive) | – | > 100 µM (inactive) | > 100 µM (inactive) | 29.6 µM (inactive) | > 100 µM (inactive) | 44.6 µM (inactive)
5 | Cc1ccc(/C=C2/N/C(=N\N=C/c3ccccc3)NC2=O)cc1 | 30.6 µM (inactive) | > 100 µM (inactive) | 43.1 µM (inactive) | 77.1 µM (inactive) | 31.7 µM (inactive) | 34.3 µM (inactive) | 33.3 µM (inactive) | 17.3 µM (inactive) | 25.8 µM (inactive) | – | 32.2 µM (inactive) | 48.5 µM (inactive) | 42.5 µM (inactive) | 18.4 µM (inactive) | 26.5 µM (inactive) | 45.7 µM (inactive) | 39.4 µM (inactive) | 16.2 µM (inactive) | 56.5 µM (inactive) | 39.1 µM (inactive)
6 | Clc1ccc(-c2nc(-c3ccc(Cl)cc3)[s+]s2)cc1 | 28.4 µM (inactive) | 42.1 µM (inactive) | 56.2 µM (inactive) | 37.2 µM (inactive) | > 100 µM (inactive) | 24.3 µM (inactive) | 39.6 µM (inactive) | 38.6 µM (inactive) | 46.7 µM (inactive) | – | 24 µM (inactive) | > 100 µM (inactive) | 39.8 µM (inactive) | > 100 µM (inactive) | 84.7 µM (inactive) | 96.4 µM (inactive) | > 100 µM (inactive) | 32.6 µM (inactive) | > 100 µM (inactive) | 33.1 µM (inactive)
7 | COc1ccc(NC(C)=O)c(C(=O)CCNC(C)=O)c1 | > 100 µM (inactive) | > 100 µM (inactive) | > 100 µM (inactive) | > 100 µM (inactive) | > 100 µM (inactive) | – | > 100 µM (inactive) | > 100 µM (inactive) | > 100 µM (inactive) | > 100 µM (inactive) | > 100 µM (inactive) | > 100 µM (inactive) | > 100 µM (inactive) | > 100 µM (inactive) | > 100 µM (inactive) | > 100 µM (inactive) | > 100 µM (inactive) | > 100 µM (inactive) | > 100 µM (inactive) | > 100 µM (inactive)
8 | C=CCC1(C(=O)OC)CCC/C(=N\O)C1 (centres undefined) | > 10 µM (inactive) | > 10 µM (inactive) | – | > 10 µM (inactive) | > 10 µM (inactive) | > 10 µM (inactive) | > 10 µM (inactive) | > 10 µM (inactive) | > 10 µM (inactive) | > 10 µM (inactive) | > 10 µM (inactive) | > 10 µM (inactive) | > 10 µM (inactive) | – | – | > 10 µM (inactive) | – | > 10 µM (inactive) | > 10 µM (inactive) | > 10 µM (inactive)
9 | COc1cc2c(cc1OCCCCCCCCN1C(=O)c3cccc4cccc(c34)C1=O)N=C[C@@H]1CCCN1C2=O | 4.07 µM (inactive) | 16.3 µM (inactive) | 2.37 µM (inactive) | 15 µM (inactive) | 37.3 µM (inactive) | 3.87 µM (inactive) | 3.27 µM (inactive) | 16 µM (inactive) | 22.1 µM (inactive) | – | 29.7 µM (inactive) | 7.45 µM (inactive) | 14.9 µM (inactive) | 17.2 µM (inactive) | 12.4 µM (inactive) | 22.2 µM (inactive) | 14.6 µM (inactive) | 2.96 µM (inactive) | 4.71 µM (inactive) | 6.89 µM (inactive)
10 | Cc1c(NC(=S)NN)c(=O)n(-c2ccccc2)n1C | > 100 µM (inactive) | > 100 µM (inactive) | > 100 µM (inactive) | > 100 µM (inactive) | > 100 µM (inactive) | > 100 µM (inactive) | > 100 µM (inactive) | – | 93.8 µM (inactive) | – | > 100 µM (inactive) | > 100 µM (inactive) | > 100 µM (inactive) | > 100 µM (inactive) | > 100 µM (inactive) | > 100 µM (inactive) | > 100 µM (inactive) | > 100 µM (inactive) | > 100 µM (inactive) | > 100 µM (inactive)
11 | CC1=C[P+](c2ccccc2)(c2ccccc2)c2ccccc2O1 | 1.56 µM (inactive) | 2.07 µM (inactive) | 16.7 µM (inactive) | 16.6 µM (inactive) | 3.39 µM (inactive) | 0.524 µM (active) | > 100 µM (inactive) | 30.6 µM (inactive) | 2.53 µM (inactive) | 3.73 µM (inactive) | 14 µM (inactive) | 3.32 µM (inactive) | 5.14 µM (inactive) | > 100 µM (inactive) | > 100 µM (inactive) | 1.32 µM (inactive) | 4.17 µM (inactive) | – | 1.29 µM (inactive) | 4.45 µM (inactive)
12 | Cc1c(/C=N\NC(=S)NCCNC(=S)N/N=C\c2c(C)n(C)n(-c3ccccc3)c2=O)c(=O)n(-c2ccccc2)n1C | > 100 µM (inactive) | > 100 µM (inactive) | > 100 µM (inactive) | > 100 µM (inactive) | > 100 µM (inactive) | – | > 100 µM (inactive) | > 100 µM (inactive) | > 100 µM (inactive) | > 100 µM (inactive) | > 100 µM (inactive) | > 100 µM (inactive) | – | > 100 µM (inactive) | > 100 µM (inactive) | – | 22.4 µM (inactive) | – | > 100 µM (inactive) | –
13 | C#C[C@]1(O)CC[C@H]2[C@@H]3CCC4=C/C(=N/NC(=O)c5cccc6cc7ccccc7nc56)CC[C@@H]4[C@H]3CC[C@@]21CC | 38.5 µM (inactive) | > 100 µM (inactive) | – | 70 µM (inactive) | 84.7 µM (inactive) | > 100 µM (inactive) | 58.9 µM (inactive) | > 100 µM (inactive) | 94 µM (inactive) | > 100 µM (inactive) | – | 62.2 µM (inactive) | 45 µM (inactive) | – | > 100 µM (inactive) | 35.4 µM (inactive) | > 100 µM (inactive) | 71.6 µM (inactive) | 70.5 µM (inactive) | 48.9 µM (inactive)
14 | O=c1[nH]c(Nc2ccc(Br)c(C(F)(F)F)c2)nc2[nH]cnc12 | 37.1 µM (inactive) | 29 µM (inactive) | 80.2 µM (inactive) | 28.5 µM (inactive) | 30.5 µM (inactive) | – | > 100 µM (inactive) | 43.4 µM (inactive) | 13.1 µM (inactive) | 26.4 µM (inactive) | 83.9 µM (inactive) | 37.7 µM (inactive) | 42.9 µM (inactive) | 43.9 µM (inactive) | – | 43.3 µM (inactive) | 20.2 µM (inactive) | 47.3 µM (inactive) | 20.8 µM (inactive) | 39.1 µM (inactive)
15 | C/C(=N\N=C(/S)N(C)C)c1cccnn1 | 0.293 µM (active) | 2.48 µM (inactive) | 0.551 µM (active) | 0.65 µM (active) | 0.594 µM (active) | 0.794 µM (active) | 0.521 µM (active) | 0.0796 µM (active) | > 66.4 µM (inactive) | – | 4.05 µM (inactive) | 0.385 µM (active) | 0.526 µM (active) | 0.564 µM (active) | 0.488 µM (active) | 1.1 µM (active) | 7.66 µM (inactive) | 0.466 µM (active) | 0.468 µM (active) | 0.495 µM (active)
